This is an account of results in PubChem BioAssay AID328 (DTP/NCI, 2004).

Values joined by “and” are separate entries in the source; they are usually repeats but may differ in a detail not shown here. Equal entries are not always repeated. Toxic doses and inconclusive results are not listed.

The subject of this experiment is BDF1 mice, P388 leukemia ip, median survival T/C. Kind of experiment: NCI In Vivo Anticancer Drug Screen. Data for tumor model P388 Leukemia (intraperitoneal) in B6D2F1 (BDF1) mice. The following applies: endpoint: median survival time, higher = longer survival. The procedure, abridged:
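In tumour-bearing mice, survival after compound treatment is set against the vehicle group and given as a quotient.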

Setting [1] is: dose: 50.0 mg/kg/injection, schedule: Q04DX003 (ip), vehicle: saline sonified.
Where [2] appears, read: dose: 100.0 mg/kg/injection, schedule: Q04DX003 (ip), vehicle: saline sonified.
The mark [3] stands for this setting: dose: 6.25 mg/kg/injection, schedule: Q01DX009 (ip), vehicle: saline.
The mark [4] stands for this setting: dose: 12.5 mg/kg/injection, schedule: Q01DX009 (ip), vehicle: saline.
[5] abbreviates: dose: 100.0 mg/kg/injection, schedule: Q01DX009 (ip), vehicle: saline with Tween-80.
[6] abbreviates: dose: 200.0 mg/kg/injection, schedule: Q01DX009 (ip), vehicle: saline with Tween-80.
The mark [7] stands for this setting: dose: 400.0 mg/kg/injection, schedule: Q01DX009 (ip), vehicle: saline with Tween-80.
[8] abbreviates: dose: 25.0 mg/kg/injection, schedule: Q04DX003 (ip), vehicle: saline.
The mark [9] stands for this setting: dose: 50.0 mg/kg/injection, schedule: Q04DX003 (ip), vehicle: saline.
Setting [10] is: dose: 100.0 mg/kg/injection, schedule: Q04DX003 (ip), vehicle: saline.
The mark [11] stands for this setting: dose: 200.0 mg/kg/injection, schedule: Q04DX003 (ip), vehicle: saline.
[12] abbreviates: dose: 1.56 mg/kg/injection, schedule: Q01DX009 (ip), vehicle: saline.
Where [13] appears, read: dose: 100.0 mg/kg/injection, schedule: Q01DX009 (ip), vehicle: saline.
Where [14] appears, read: dose: 50.0 mg/kg/injection, schedule: Q01DX009 (ip), vehicle: saline with Tween-80.
The mark [15] stands for this setting: dose: 100.0 mg/kg/injection, schedule: Q04DX003 (ip), vehicle: saline with Tween-80.

As to `O=C(/C=N/O)c1cccnc1`, the T/C by setting is: (dose: 25.0 mg/kg/injection, schedule: Q04DX003 (ip), vehicle: saline sonified) 100 % of control; under setting [1], 95 % of control; under setting [2], 100 % of control.

`OCCN1CCN(CC/C=C2\c3ccccc3Sc3ccc(Cl)cc32)CC1`: the T/C reads like this: under setting [3], 114 % of control; under setting [4], 114 % of control.

For the molecule `COc1ccc2c(c1O)-c1c(OC)c(OC)cc3c1C(C2)N(C)CC3` (centres undefined), the T/C (dose: 5.0 mg/kg/injection, schedule: Q01DX010 (ip), vehicle: saline) is 100 % of control; the T/C (dose: 10.0 mg/kg/injection, schedule: Q01DX010 (ip), vehicle: saline) was 95 % of control; the T/C (dose: 20.0 mg/kg/injection, schedule: Q01DX010 (ip), vehicle: saline) is 100 % of control; the T/C (dose: 40.0 mg/kg/injection, schedule: Q01DX010 (ip), vehicle: saline) is 100 % of control.

For the molecule `COc1ccc(CC(=O)NCCc2ccc3cc(OC)c(OC)cc3c2)cc1OC`, the T/C is 95 % of control under setting [5], 95 % of control under setting [6] and 91 % of control under setting [7].

With `NS(=O)(=O)c1c([N+](=O)[O-])ncn1C1OC(COC(=O)c2ccccc2)C(OC(=O)c2ccccc2)C1OC(=O)c1ccccc1` (centres undefined), the T/C was 105 % of control under setting [8], 100 % of control under setting [9], 121 % of control under setting [10] and 124 % of control under setting [11].

`Cn1cc(C=O)c2nccnc21`: the T/C was 92 % of control (dose: 0.78 mg/kg/injection, schedule: Q01DX009 (ip), vehicle: saline); 112 % of control under setting [12]; 91 % of control under setting [3]; 86 % of control under setting [4]; 117 % of control under setting [5]; 108 % of control under setting [13].

Consider `O=C(Nc1ccc([N+](=O)[O-])cc1)Nc1ccc([N+](=O)[O-])cc1`, for which the T/C runs as follows: under setting [1], 86 % of control; under setting [2], 86 % of control; (dose: 200.0 mg/kg/injection, schedule: Q04DX003 (ip), vehicle: saline sonified) 90 % of control.

For `CC1CN1C(=O)c1cc(C(=O)N2CC2C)cc(C(=O)N2CC2C)c1` (centres undefined), the T/C by setting is: (dose: 8.25 mg/kg/injection, schedule: Q04DX003 (ip), vehicle: saline with Tween-80) 113 % of control; (dose: 16.5 mg/kg/injection, schedule: Q04DX003 (ip), vehicle: saline with Tween-80) 117 % of control; (dose: 37.5 mg/kg/injection, schedule: Q01DX009 (ip), vehicle: saline with Tween-80) 166 % of control; under setting [14], 163 % of control; (dose: 66.0 mg/kg/injection, schedule: Q04DX003 (ip), vehicle: saline) 86 % of control; (dose: 150.0 mg/kg/injection, schedule: Q04DX003 (ip), vehicle: saline) 86 % of control.

For the molecule `CC(=O)OC/C(=N\Nc1ccc([N+](=O)[O-])cc1[N+](=O)[O-])c1ccccc1`, the T/C is, setting by setting: (dose: 3.13 mg/kg/injection, schedule: Q01DX001 (ip), vehicle: saline with Tween-80) 104 % of control; (dose: 6.25 mg/kg/injection, schedule: Q01DX001 (ip), vehicle: saline with Tween-80) 100 % of control; (dose: 12.5 mg/kg/injection, schedule: Q01DX001 (ip), vehicle: saline with Tween-80) 95 % of control.

Take `C=CC(COC(=O)C(C)(C)OC(C)=O)c1ccc(OC(=O)C(C)C)c(OC)c1` (centres undefined): the T/C runs as follows: under setting [12], 119 % of control; (dose: 3.13 mg/kg/injection, schedule: Q01DX009 (ip), vehicle: saline) 100 % of control; under setting [3], 103 % of control; under setting [4], 100 % of control.

Turning to `Sc1ccc(Nc2c3ccccc3nc3ccccc23)cc1`, the T/C reads like this: under setting [14], 102 % of control and 108 % of control; under setting [5], 100 % of control and 118 % of control.

For the molecule `Cc1ccc(Nc2nc(N)nc(N)c2N)cc1Cl`, the T/C (dose: 33.0 mg/kg/injection, schedule: Q01DX009 (ip), vehicle: saline with Tween-80) is 120 % of control.

`Cn1cnc([N+](=O)[O-])c1[Se]c1nc(N)nc2c1ncn2C1CC(O)C(CO)O1` (centres undefined): the T/C is 95 % of control under setting [9], 90 % of control under setting [10] and 90 % of control under setting [11].

For the molecule `Nc1nc(N)c2cc(NCc3ccc(Br)cc3)ccc2n1`, the T/C was 105 % of control (dose: 3.12 mg/kg/injection, schedule: Q01DX009 (ip), vehicle: Klucel (hydroxypropylcellulose) (HPC)); 100 % of control (dose: 6.25 mg/kg/injection, schedule: Q01DX009 (ip), vehicle: Klucel (hydroxypropylcellulose) (HPC)); 95 % of control (dose: 12.5 mg/kg/injection, schedule: Q01DX009 (ip), vehicle: Klucel (hydroxypropylcellulose) (HPC)).

Consider `N#Cc1ccc(Oc2ccc(C#N)cc2)cc1`, for which the T/C under setting [15] was 92 % of control; the T/C (dose: 200.0 mg/kg/injection, schedule: Q04DX003 (ip), vehicle: saline with Tween-80) is 88 % of control; the T/C (dose: 400.0 mg/kg/injection, schedule: Q04DX003 (ip), vehicle: saline with Tween-80) was 88 % of control.

For the molecule `O=C(O)CCC(=O)Nc1ccccc1C(F)(F)F`, the T/C runs as follows: under setting [5], 100 % of control; under setting [6], 109 % of control; under setting [7], 90 % of control.

As for `COc1cc2cc[n+](C)cc2cc1OC`, the T/C is, setting by setting: (dose: 6.25 mg/kg/injection, schedule: Q04DX003 (ip), vehicle: water) 94 % of control; (dose: 12.5 mg/kg/injection, schedule: Q04DX003 (ip), vehicle: water) 94 % of control; under setting [8], 100 % of control; (dose: 25.0 mg/kg/injection, schedule: Q04DX003 (ip), vehicle: water) 107 % of control; (dose: 50.0 mg/kg/injection, schedule: Q01DX009 (ip), vehicle: saline) 100 % of control; under setting [9], 86 % of control and 104 % of control. Further, the T/C was 111 % of control (dose: 50.0 mg/kg/injection, schedule: Q04DX003 (ip), vehicle: water); 100 % of control under setting [13]; 88 % of control and 90 % of control and 113 % of control under setting [10]; 111 % of control (dose: 100.0 mg/kg/injection, schedule: Q04DX003 (ip), vehicle: water).

Turning to `CC1(C)N=C(N)N=C(N)N1c1cccc(CNC(=O)Nc2cccc(S(=O)(=O)F)c2)c1`, the T/C is 154 % of control under setting [14]; 100 % of control (dose: 50.0 mg/kg/injection, schedule: Q04DX003 (ip), vehicle: saline with Tween-80); 168 % of control under setting [5]; 100 % of control under setting [15].

In the case of `O=C(CCc1ccc(O)cc1)c1c(O)cc(O)cc1OC1OC(CO)C(O)C(O)C1O` (centres undefined), the T/C is 100 % of control (dose: 115.0 mg/kg/injection, schedule: Q01DX010 (ip), vehicle: saline); 109 % of control (dose: 175.0 mg/kg/injection, schedule: Q01DX010 (ip), vehicle: saline); 100 % of control (dose: 265.0 mg/kg/injection, schedule: Q01DX010 (ip), vehicle: saline); 95 % of control (dose: 400.0 mg/kg/injection, schedule: Q01DX010 (ip), vehicle: saline).

With `CCC(C)c1ccccc1OC(=O)Nc1ccc(OC)cc1` (centres undefined), the T/C was 95 % of control (dose: 50.0 mg/kg/injection, schedule: Q04DX003 (ip), vehicle: Klucel (hydroxypropylcellulose) (HPC)); 100 % of control (dose: 100.0 mg/kg/injection, schedule: Q04DX003 (ip), vehicle: Klucel (hydroxypropylcellulose) (HPC)); 100 % of control (dose: 200.0 mg/kg/injection, schedule: Q04DX003 (ip), vehicle: Klucel (hydroxypropylcellulose) (HPC)).
